US7932253B2, “Immunomodulating oxopyrrazolocinnolines as CD80 inhibitors” (MediGene AG, priority 2004, dated 2011)

Experiments:
[1] = target: T1, CD80-CD28 interaction (Homo sapiens, UniProt P33681); assay: Homogeneous time resolved fluorescence (TR-Fret) assay, cell free; format: biochemical; conditions: inhibition of the CD80-CD28 interaction; 4 hours at room temperature
T1 construct: mouse Fab fragment (fusion partner)
T1 sequence (P33681 35-242 limits assumed): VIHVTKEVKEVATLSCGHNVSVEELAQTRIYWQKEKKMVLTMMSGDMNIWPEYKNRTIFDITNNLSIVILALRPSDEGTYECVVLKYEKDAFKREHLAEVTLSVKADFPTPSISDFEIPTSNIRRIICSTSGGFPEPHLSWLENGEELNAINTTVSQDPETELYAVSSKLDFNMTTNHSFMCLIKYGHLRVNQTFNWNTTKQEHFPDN
Protocol: The compound was tested in a cell free homogenous time resolved fluorescence (HT-Fret) assay to determine their activity as an inhibitor of the CD80-CD28 interaction.
In the assay, europium and allophycocyanin (APC) are associated with CD28 and CD80 indirectly (through antibody linkers) to form a complex, which brings the europium and APC into close proximity to generate a signal. The complex comprises the following six proteins: fluorescent label 1, linker antibody 1, CD28 fusion protein, CD80 fusion protein, linker antibody 2, and fluorescent label 2. The table below describes these reagents in greater detail.
On formation of the complex, europium and APC are brought into proximity and a signal is generated.
Non-specific interaction was measured by substituting a mouse Fab fragment (C215) for the CD80 mouse Fab fragment fusion protein (1.9 μg/ml). The assay was carried out in black 384 well plates in a final volume of 30 μl. Assay buffer: 50 mM Tris-HCl, 150 mM NaCl pH7.8, containing 0.1% BSA (w/v) added just prior to use.
Compounds were added to the above reagents in a concentration series ranging between 100 μM-1.7 nM. The reaction was incubated for 4 hours at room temperature. Dual measurements were made using a Wallac Victor 1420 Multilabel Counter. […] Counts were automatically corrected for fluorescence crossover, quenching and background.

[2] = target: T2, Biotinylated human CD80 (hCD80-BT) (Homo sapiens, UniProt P33681); assay: BIAcore biomolecular interaction assay; format: binding; conditions: hCD80-BT immobilised on streptavidin-coated sensor chip; compound 1000 nM-0.05 nM
T2 construct: biotin (biotinylation)
T2 sequence (P33681 35-242 limits assumed): T1 sequence (P33681 35-242 limits assumed)
Description: Biotinylated human CD80 (hCD80-BT) is a recombinant soluble form of a membrane bound receptor molecule (CD80) which binds to CD28 to initiate T cell activation. The interaction between CD80 and CD28 has been extensively investigated (Collins et al, 2002). Biotinlyated human HLA-A2-tax is the recombinant soluble form of a membrane bound receptor molecule used as a control protein, and is not expected to interact with the compound.
The BIAcore S51™ system was used for screening the compounds of Examples 1-4 above. A series S sensor chip CM5 was docked onto the BIAcore S51™. Streptavidin was coupled to the carboxymethyl surface using standard amine coupling. The chip surface was activated with 0.2M EDC/0.05M NHS, followed by binding of streptavidin (0.25 mg/ml in 10 mM sodium acetate pH 5.0) and saturation of unoccupied sites with […].
The BIAcore S51 sensor chip has two separate sensor spots for immobilisation of proteins. hCD80-BT was immobilised on the streptavidin-coated surface of one sensor spot until a response of approximately 3000 RU was observed. A protein to control for non-specific binding of the compound was immobilised on a second sensor spot. […]
BIAcore S51™ was run at a flow rate of 30 μl/min using running buffer. […] Data were recorded automatically and were analysed using BIAcore S51 Evaluation software.

For `O=C(N[C@H]1CN2CCC1CC2)c1ccc(-n2[nH]c3c(nnc4c(F)ccc(F)c43)c2=O)cc1` [The compound, (R)—N-(1-Aza-bicyclo[2.2.2]oct-3-yl)-4-(6,9-difluoro-3-oxo-1,3-dihydro-pyrazolo[4,3-c]cinnolin-2-yl)-benzamide], the EC50 [1] was 0.82 nM and the Kd [2] was 0.35 nM.
